{"source": "patent EP0067666A1", "about": "“Salts of antimicrobial naphthyridine and quinoline compounds and their production” (priority 1981, dated 1982)", "key": {"Pseudo. aeruginosa UI-18": {"system": "Pseudo. aeruginosa UI-18", "assay": "Antibacterial activity, MIC", "format": "cell-based"}, "Strep. faecalis MGH-2": {"system": "Strep. faecalis MGH-2", "assay": "Antibacterial activity, MIC", "format": "cell-based", "conditions": "for MIC µg/ml Strep. faecalis MGH-2: based on content of compound A; for MIC: Enterococcus faecalis"}, "Entero cloacae MA 2646": {"system": "Entero cloacae MA 2646", "assay": "Antibacterial activity, MIC", "format": "cell-based"}, "Proteus retgeri M 1771": {"system": "Proteus retgeri M 1771", "assay": "Antibacterial activity, MIC", "format": "cell-based"}, "Strep. pyogenes C-203": {"system": "Strep. pyogenes C-203", "assay": "Antibacterial activity, MIC", "format": "cell-based"}, "Strep. pneumoniae SV-1": {"system": "Strep. pneumoniae SV-1", "assay": "Antibacterial activity, MIC", "format": "cell-based", "conditions": "for MIC µg/ml Strep. pneumoniae SV-1: based on content of compound A; for MIC: Streptococcus pneumoniae"}, "Staph. aureus H 228": {"system": "Staph. aureus H 228", "assay": "Antibacterial activity, MIC", "format": "cell-based", "conditions": "for MIC µg/ml Staph. aureus H 228: based on content of compound A; for MIC: Staphylococcus aureus"}, "Staph. aureus UC-76": {"system": "Staph. aureus UC-76", "assay": "Antibacterial activity, MIC", "format": "cell-based"}, "Klebs. pneumoniae MGH-2": {"system": "Klebs. pneumoniae MGH-2", "assay": "Antibacterial activity, MIC", "format": "cell-based", "conditions": "for MIC µg/ml Klebs. pneumoniae MGH-2: based on content of compound A; for MIC: Klebsiella pneumoniae"}, "E. coli Vogel": {"system": "E. coli Vogel", "assay": "Antibacterial activity, MIC", "format": "cell-based", "conditions": "for MIC: Escherichia coli"}, "[1]": {"assay": "Two-way crossover oral trial, drug blood levels by disk agar diffusion microbiological assay", "format": "in vivo", "conditions": "Beagle dogs, single 25 mg/kg (parent compound equivalent) oral dose in hard gelatine capsules; compound B compared with compound D as the glutamate", "method": "Drug blood levels were determined by a disk agar diffusion microbiological assay."}, "[2]": {"system": "Staphylococcus aureus UC-76", "assay": "Acute mouse protection test", "format": "in vivo", "conditions": "single dose given at time of challenge, compound B series"}, "Escherichia coli Vogel": {"system": "Escherichia coli Vogel", "assay": "Acute mouse protection test", "format": "in vivo", "conditions": "Escherichia coli, single dose given at time of challenge"}, "[3]": {"system": "Klebsiella pneumoniae MGH-2", "assay": "Acute mouse protection test", "format": "in vivo", "conditions": "single dose given at time of challenge; for ED50: Klebsiella pneumoniae, compound A series"}, "[4]": {"assay": "Lyophilization of the salts", "format": "physicochemical", "description": "The unpredictable characteristics of the salts prepared from Compounds A and B are clear from consideration of the results reported in Table 1. These characteristics were considered in view of the necessary requirements (a-f) outlined above for preparing a useful parenteral dosage form. […] From the data in Table 1, the lactate salts appear to be useful; however, lactic acid cannot be consistently obtained in a satisfactory grade in presently available commercial forms and is therefore not useful. The choline and sodium salts were ruled out based on the pH of their respective solutions."}, "[5]": {"conditions": "MGH2, based on content of compound B"}, "[6]": {"conditions": "MGH2, based on content of compound A"}}, "note": "Where two headings read alike, the source gives them in different places."}
{"smiles": "CCn1cc(C(=O)O)c(=O)c2cc(F)c(N3CCNCC3)cc21", "note": "[A Aspartate]", "values": [{"measurement": "MIC µg/ml Pseudo. aeruginosa UI-18", "setting": "Pseudo. aeruginosa UI-18; based on content of compound A", "value": "<0.1", "unit": "µg/mL"}, {"measurement": "MIC µg/ml Strep. faecalis MGH-2", "setting": "Strep. faecalis MGH-2", "value": 1.6, "unit": "µg/mL"}, {"measurement": "MIC µg/ml Entero cloacae MA 2646", "setting": "Entero cloacae MA 2646; based on content of compound A", "value": 0.1, "unit": "µg/mL"}, {"measurement": "MIC µg/ml Proteus retgeri M 1771", "setting": "Proteus retgeri M 1771; based on content of compound A", "value": "<0.1", "unit": "µg/mL"}, {"measurement": "MIC µg/ml Strep. pyogenes C-203", "setting": "Strep. pyogenes C-203; based on content of compound A", "value": 0.8, "unit": "µg/mL"}, {"measurement": "MIC µg/ml Strep. pneumoniae SV-1", "setting": "Strep. pneumoniae SV-1", "value": 1.6, "unit": "µg/mL"}, {"measurement": "MIC µg/ml Staph. aureus H 228", "setting": "Staph. aureus H 228", "value": 0.8, "unit": "µg/mL"}, {"measurement": "MIC µg/ml Staph. aureus UC-76", "setting": "Staph. aureus UC-76; based on content of compound A", "value": "<0.1", "unit": "µg/mL"}, {"measurement": "MIC µg/ml Klebs. pneumoniae MGH-2", "setting": "Klebs. pneumoniae MGH-2", "value": 0.2, "unit": "µg/mL"}, {"measurement": "MIC µg/ml E. coli Vogel", "setting": "E. coli Vogel; based on content of compound A", "value": "<0.1", "unit": "µg/mL"}]}
{"smiles": "CCn1cc(C(=O)O)c(=O)c2cc(F)c(N3CCNCC3)nc21", "note": "[Compound B, 1-ethyl-6-fluoro-1,4-dihydro-4-oxo-7-(1-piperazinyl)-1,8-naphthyridine-3-carboxylic acid, reference compound]", "values": [{"measurement": "drug half-life", "setting": "[1]", "value": "no significant difference"}, {"measurement": "peak blood level", "setting": "[1]", "value": "no significant difference"}, {"measurement": "ED50", "setting": "[2]; Staphylococcus aureus, UC76, po, oral, read-out: Single po Dose PD50 (mg/kg) ± 95% Confidence Limits Staphylococcus aureus UC-76", "value": "14 ± 7", "unit": "mg/kg"}, {"measurement": "Single sc Dose PD50 (mg/kg) ± 95% Confidence Limits Staphylococcus aureus UC-76", "setting": "[2]; subcutaneous", "value": "7.4 ± 2.2", "unit": "mg/kg"}, {"measurement": "ED50", "setting": "Escherichia coli Vogel; po, compound B series, read-out: Single po Dose PD50 (mg/kg) ± 95% Confidence Limits Escherichia coli Vogel", "value": "3.1 ± 0.7", "unit": "mg/kg"}, {"measurement": "ED50", "setting": "Escherichia coli Vogel; sc, subcutaneous, compound B series, read-out: Single sc Dose PD50 (mg/kg) ± 95% Confidence Limits Escherichia coli Vogel", "value": "1.4 ± 0.4", "unit": "mg/kg"}, {"measurement": "MIC µg/ml Pseudo. aeruginosa UI-18", "setting": "Pseudo. aeruginosa UI-18; based on content of compound B", "value": 0.8, "unit": "µg/mL"}, {"measurement": "MIC", "setting": "Strep. faecalis MGH-2; [5]", "value": 1.6, "unit": "µg/mL"}, {"measurement": "MIC", "setting": "Entero cloacae MA 2646; based on content of compound B", "value": 0.2, "unit": "µg/mL"}, {"measurement": "MIC", "setting": "Proteus retgeri M 1771; based on content of compound B", "value": 0.1, "unit": "µg/mL"}, {"measurement": "MIC µg/ml Strep. pyogenes C-203", "setting": "Strep. pyogenes C-203; based on content of compound B", "value": 3.1, "unit": "µg/mL"}, {"measurement": "MIC", "setting": "Strep. pneumoniae SV-1; SV1, based on content of compound B", "value": 3.1, "unit": "µg/mL"}, {"measurement": "MIC", "setting": "Staph. aureus H 228; H228, based on content of compound B", "value": 3.1, "unit": "µg/mL"}, {"measurement": "MIC µg/ml Staph. aureus UC-76", "setting": "Staph. aureus UC-76; based on content of compound B", "value": 0.2, "unit": "µg/mL"}, {"measurement": "MIC", "setting": "Klebs. pneumoniae MGH-2; [5]", "value": 0.1, "unit": "µg/mL"}, {"measurement": "MIC", "setting": "E. coli Vogel; based on content of compound B", "value": 0.2, "unit": "µg/mL"}, {"measurement": "Single sc Dose PD50 (mg/kg) ± 95% Confidence Limits Klebsiella pneumoniae MGH-2", "setting": "[3]; subcutaneous, compound B series", "value": "2.6 ± 0.6", "unit": "mg/kg"}]}
{"smiles": "CCn1cc(C(=O)O)c(=O)c2cc(F)c(N3CCNCC3)nc21", "note": "[Compound B L-Glutamic, 1-Ethyl-6-fluoro-1,4-dihydro-4-oxo-7-(1-piperazinyl)-1,8-naphthyridine-3-carboxylic acid L-glutamate]", "values": [{"measurement": "drug half-life", "setting": "[1]", "value": "no significant difference"}, {"measurement": "peak blood level", "setting": "[1]", "value": "no significant difference"}]}
{"smiles": "CCn1cc(C(=O)O)c(=O)c2cc(F)c(N3CCNCC3)cc21", "note": "[A acetate]", "values": [{"measurement": "lyophilization", "setting": "[4]", "value": "cannot be successfully lyophilized"}]}
{"smiles": "CCn1cc(C(=O)O)c(=O)c2cc(F)c(N3CCNCC3)cc21", "note": "[Compound A, 1-ethyl-6-fluoro-1,4-dihydro-4-oxo-7-(1-piperazinyl)-3-quinolinecarboxylic acid, reference compound]", "values": [{"measurement": "ED50", "setting": "Escherichia coli Vogel; po, compound A series, read-out: Single po Dose PD50 (mg/kg) ± 95% Confidence Limits Escherichia coli Vogel", "value": "3.3 ± 0.5", "unit": "mg/kg"}, {"measurement": "ED50", "setting": "Escherichia coli Vogel; sc, subcutaneous, compound A series, read-out: Single sc Dose PD50 (mg/kg) ± 95% Confidence Limits Escherichia coli Vogel", "value": "0.5 ± 0.1", "unit": "mg/kg"}, {"measurement": "MIC µg/ml Pseudo. aeruginosa UI-18", "setting": "Pseudo. aeruginosa UI-18; based on content of compound A", "value": 0.4, "unit": "µg/mL"}, {"measurement": "MIC", "setting": "Strep. faecalis MGH-2; [6]", "value": 1.6, "unit": "µg/mL"}, {"measurement": "MIC", "setting": "Entero cloacae MA 2646; based on content of compound A", "value": "< 0.1", "unit": "µg/mL"}, {"measurement": "MIC", "setting": "Proteus retgeri M 1771; based on content of compound A", "value": "< 0.1", "unit": "µg/mL"}, {"measurement": "MIC", "setting": "Strep. pyogenes C-203; Streptococcus pyogenes, C203, based on content of compound A", "value": 0.8, "unit": "µg/mL"}, {"measurement": "MIC", "setting": "Strep. pneumoniae SV-1; SV1, based on content of compound A", "value": 0.8, "unit": "µg/mL"}, {"measurement": "MIC", "setting": "Staph. aureus H 228; H228, based on content of compound A", "value": 1.6, "unit": "µg/mL"}, {"measurement": "MIC", "setting": "Staph. aureus UC-76; Staphylococcus aureus, UC76, based on content of compound A", "value": 0.1, "unit": "µg/mL"}, {"measurement": "MIC", "setting": "Klebs. pneumoniae MGH-2; [6]", "value": 0.2, "unit": "µg/mL"}, {"measurement": "MIC", "setting": "E. coli Vogel; based on content of compound A", "value": 0.1, "unit": "µg/mL"}, {"measurement": "ED50", "setting": "[3]; MGH2, po, oral, read-out: Single po Dose PD50 (mg/kg) ± 95% Confidence Limits Klebsiella pneumoniae MGH-2", "value": "15 ± 3", "unit": "mg/kg"}, {"measurement": "ED50", "setting": "[3]; MGH2, sc, subcutaneous, read-out: Single sc Dose PD50 (mg/kg) ± 95% Confidence Limits Klebsiella pneumoniae MGH-2", "value": "1.3 ± 0.3", "unit": "mg/kg"}]}
{"smiles": "CCn1cc(C(=O)O)c(=O)c2cc(F)c(N3CCNCC3)cc21", "note": "[A Glutamate]", "values": [{"measurement": "MIC µg/ml Pseudo. aeruginosa UI-18", "setting": "Pseudo. aeruginosa UI-18; based on content of compound A", "value": 0.1, "unit": "µg/mL"}, {"measurement": "MIC µg/ml Strep. faecalis MGH-2", "setting": "Strep. faecalis MGH-2", "value": 1.6, "unit": "µg/mL"}, {"measurement": "MIC µg/ml Entero cloacae MA 2646", "setting": "Entero cloacae MA 2646; based on content of compound A", "value": "<0.1", "unit": "µg/mL"}, {"measurement": "MIC µg/ml Proteus retgeri M 1771", "setting": "Proteus retgeri M 1771; based on content of compound A", "value": 0.1, "unit": "µg/mL"}, {"measurement": "MIC µg/ml Strep. pyogenes C-203", "setting": "Strep. pyogenes C-203; based on content of compound A", "value": 0.8, "unit": "µg/mL"}, {"measurement": "MIC µg/ml Strep. pneumoniae SV-1", "setting": "Strep. pneumoniae SV-1", "value": 1.6, "unit": "µg/mL"}, {"measurement": "MIC µg/ml Staph. aureus H 228", "setting": "Staph. aureus H 228", "value": 1.6, "unit": "µg/mL"}, {"measurement": "MIC µg/ml Staph. aureus UC-76", "setting": "Staph. aureus UC-76; based on content of compound A", "value": "<0.1", "unit": "µg/mL"}, {"measurement": "MIC µg/ml Klebs. pneumoniae MGH-2", "setting": "Klebs. pneumoniae MGH-2", "value": 0.1, "unit": "µg/mL"}, {"measurement": "MIC µg/ml E. coli Vogel", "setting": "E. coli Vogel; based on content of compound A", "value": "<0.1", "unit": "µg/mL"}]}
